We go through one compound from patent US20230286947A1, “COMPLEMENT FACTOR B INHIBITOR, AND PHARMACEUTICAL COMPOSITION, PREPARATION METHOD AND USE THEREOF” (SHANGHAI MEIYUE BIOTECH DEVELOPMENT CO. LTD, priority 2020, published 2023).

Series [1] is described as follows: Liver microsomal stability experiment (human). In kind it is in vitro ADME. The procedure:
(§1) A 0.1 M solution of potassium dihydrogen phosphate in distilled water (comprising 1 mM ethylenediaminetetraacetic acid) was taken. Then the pH was adjusted to 7.4 with the 0.1 M solution of dipotassium phosphate in distilled water (comprising 1 mM ethylenediaminetetraacetic acid).
Human – Pooled Human Liver Microsomes (Mongolian), Cat. No.: LM-R-02M, RILD Research Institute for Liver Diseases (Shanghai) Co. Ltd.
(§2) A 10 mM solution of each of the control compound and test compounds was prepared in DMSO. Then 10 μL of the solution was added to 190 μL of acetonitrile to form a 0.5 mM mother liquor. 1.5 μL of the 0.5 mM compound mother liquor was measured out, and […] of 20 mg/mL liver microsomes and 479.75 μL of the buffer were added. (The actual preparation amount can be adjusted according to use).
(§3) A 10 mg/mL solution of reduced coenzyme II (NADPH) was prepared in the buffer. A 96-well plate was placed on ice. Wells corresponding to different time points (0, 10, 30, 60 and 90 min, Non-NADPH) were set for each compound. 30 μL of the working solution was added to each well. For 0 min wells, 155 μL of glacial acetonitrile solution (the internal standard concentration was 1 μM) was added first, and after the mixtures were well mixed using a pipet, 15 μL of NADPH (10 mg/mL) was added. Before the reactions were started, the 96-well plate was pre-incubated on a microplate shaker at 37° C. for 5 min. Then 15 μL of NADPH (10 mg/mL) was added to each well to start the metabolic reactions. After the reactions were carried out for 10, 30, 60 and 90 min, 155 μL of glacial acetonitrile solution (the internal standard concentration was 1 μM) was added to the corresponding wells to terminate the reactions. After 90 min, the reaction in the Non-NADPH system was terminated by adding 155 μL of glacial acetonitrile solution (the internal standard concentration was 1 μM). After the reaction was completed, the 96-well plate was shaken on a microplate shaker (600 rpm) for 10 min and then centrifuged at 4° C. at 4000 g for 15 min. 50 μL of the supernatant was added to a new 2 mL 96-well plate, and 300 μL of deionized water was added. The mixture was analyzed on an AB SCIEX ExionLC-Triple Quad 5500 high performance liquid chromatograph-mass spectrometer. The Analyst 1.6.3 software was used.
In general terms: Microsomes from liver hold many membrane-bound enzymes, among them those of drug oxidation.

For series [2], the system named is Streptococcus-induced rheumatoid arthritis. Kind of series: Streptococcus-induced rheumatoid arthritis (RA) model in rats. The format is in vivo, Lewis rats. The settings on record: 15 mpk intragastric daily for 25 days, FIG. 3. The procedure:
In the experiment, six- to nine-week-old female Lewis rats (Beijing Vital River) were used. Each group consisted of 6 rats, and they were given the cell wall peptidoglycan complexes of Streptococcus and several other species of bacteria by intraperitoneal administration (2-3 mg per rat) on D1, and were given the control compound (15 mpk) and Example 5 (15 mpk) by intragastric administration daily for 25 consecutive days. The arthritis in rats was scored in different phases. The scoring criteria are as follows: Scoring according to the degree of lesion (redness and swelling) was performed on a scale of 0-4 points, with a maximum score of 4 for each limb and a total maximum score of 16 for each animal's limbs. The scoring criteria are as follows: 0 points: no redness and swelling; 1 point: 1-2 red and swollen interphalangeal joints; 2 points: 3-4 red and swollen interphalangeal joints; 3 points: more than 4 red and swollen interphalangeal joints; 4 points: severe redness and swelling in toes or fingers to ankle joints or wrist joints.

Series [3] can be described thus: Liver microsomal stability experiment (monkey). In kind it is in vitro ADME. Conditions: cynomolgus monkey liver microsomes. The procedure: as §1
Monkey: Cynomolgus Monkey Liver Microsomes, Cat. No.: LM-SXH-02M, RILD Research Institute for Liver Diseases (Shanghai) Co. Ltd.
as §2, §3

Series [4] can be described thus: PK/PD experiment of single intragastric administration to cynomolgus monkeys: plasma concentration. The format is in vivo. Conditions: same dose (3 & 30 mpk), FIG. 1. The protocol: Cynomolgus monkeys were used. Each group consisted of 3 cynomolgus monkeys, and they were given the control compound and the compound of Example 5 (3 & 30 mpk) by intragastric administration. Blood was collected at different time points and analyzed for drug concentration and complement activity. The drug concentration in plasma was determined by LC-MS/MS. The complement activity in serum was determined using a wieslab assay (Svar Life Science AB, COMPL AP330 RUO) kit, Normal Human Serum (Complement Technology, NHS).

The nature of series [5]: PK experiment of single intragastric administration to rats. In kind it is in vivo. Conditions: male, Wistar Han, plasma, po, rat, 3 mg/kg, mean. The procedure:
Six- to nine-week-old male Wistar han rats (from Shanghai Sippe-Bk Lab Animal Co., Ltd.) were fasted overnight. Each group consisted of 3 rats, and they were given the control compound, the compound of Example 5 and the compound of Example 6, respectively, by intragastric administration at 3 mg/kg at a volume of 10 mL/kg. 0.2 mL of blood was collected from the jugular vein at each time point, anticoagulated with EDTA-K2 and immediately centrifuged at 4000 rpm at 4° C. for 5 min. The supeatant was collected. The samples were cryopreserved in a freezer at −80° C. before analysis. Time points of blood collection: before administration, 5 min 15 min, 30 min, 1 h, 2 h, 4 h, 7 h and 24 h. […] After blood collection at all of the time points was completed, the animals were euthanized. The plasma samples were analyzed by LC-MS/MS. The data were used to calculate kinetic parameters (Tmax, Cmax, T½ and AUC) in the WinNonlin software.

The target in another series is Complement factor B (Homo sapiens, UniProt P00751). Kind of series: Optical surface plasmon resonance (SPR) binding capacity assay. The procedure:
An SPR experiment was carried out at 25° C. In the experiment, a PBS buffer supplemented with 0.05% (v/v) P20 and 5% DMSO was used as a running buffer, and the analytical instrument Biacore 8K of GE Healthcare was used. A CM7 ship (GE Healthcare) was activated with 400 mM EDC and 100 mM NHS at a flow rate of 30 μL/min for 420 s. […] Then the assay chip was treated with 1 M ethanolamine hydrochloride at a flow rate of 10 μL/min for 300 s for chip blocking. The concentration of the test compound was 500 μM, the binding time was 120 s, and the dissociation time was 300 s. Data analysis was performed using a 1:1 binding model (Biacore Insight Evalution Software, Version 2.0.15.12933).
In general terms: Surface plasmon resonance follows binding to a sensor surface in real time, without labels.

The nature of series [6]: Liver microsomal stability experiment (rat). The format is in vitro ADME. The protocol:
as §1
Rat: SD Rat Liver Microsomes, Cat. No.: LM-DS-02M, RILD Research Institute for Liver Diseases (Shanghai) Co. Ltd.
as §2, §3

For series [7], the target named is T1, complement factor B in human serum (Homo sapiens, UniProt P00751).
T1 construct: from tissue; host or cells: normal human serum (NHS)
T1 sequence (P00751 26-764): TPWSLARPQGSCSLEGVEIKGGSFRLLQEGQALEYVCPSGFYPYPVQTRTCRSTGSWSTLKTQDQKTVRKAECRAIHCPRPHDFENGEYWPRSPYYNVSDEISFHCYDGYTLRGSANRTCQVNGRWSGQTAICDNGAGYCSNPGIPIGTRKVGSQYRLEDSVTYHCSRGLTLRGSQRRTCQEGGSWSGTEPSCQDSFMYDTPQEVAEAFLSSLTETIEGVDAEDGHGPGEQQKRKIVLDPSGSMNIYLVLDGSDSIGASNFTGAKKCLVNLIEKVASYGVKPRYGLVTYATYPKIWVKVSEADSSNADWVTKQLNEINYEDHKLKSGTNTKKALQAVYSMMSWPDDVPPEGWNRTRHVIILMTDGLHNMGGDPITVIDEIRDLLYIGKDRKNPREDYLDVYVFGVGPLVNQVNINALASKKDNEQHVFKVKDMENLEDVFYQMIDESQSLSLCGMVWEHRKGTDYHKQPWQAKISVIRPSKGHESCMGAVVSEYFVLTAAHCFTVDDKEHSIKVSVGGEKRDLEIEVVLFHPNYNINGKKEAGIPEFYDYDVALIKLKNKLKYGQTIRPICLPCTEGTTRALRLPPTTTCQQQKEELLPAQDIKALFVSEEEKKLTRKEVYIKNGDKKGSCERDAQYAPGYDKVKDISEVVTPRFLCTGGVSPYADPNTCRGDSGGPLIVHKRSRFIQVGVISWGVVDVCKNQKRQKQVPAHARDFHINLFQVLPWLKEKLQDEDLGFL
The series is described as follows: Complement hemolytic activity assay (rabbit erythrocytes, normal human serum). The format is cell-based. The procedure:
The hemolysis experiment was carried out by referring to the description in Xuan Yuan et al., Haematologica. […] Prior to the experiment, the optimal concentration of normal human serum (NHS) required to achieve 100% lysis of rabbit erythrocytes (REs) was obtained by titration testing. […] REs (collected from healthy Japanese big-ear white rabbits) freshly suspended in a GVBO buffer comprising 10 mM Mg-EGTA were added to a final concentration of 1×10^8 cells/mL and incubated at 37° C. for 30 min. A GVBO buffer comprising 10 mM Mg-EGTA and comprising NHS and RE but no test compound was used as a positive control group (100% lysis). A GVBO buffer comprising 10 mM Mg-EGTA and comprising inactivated NHS (heated at 56° C. for 30 min or at 65° C. for 5 min) and RE but no test compound was used as a negative control group (0% lysis). The samples were centrifuged at 2000 g for 5 min, and the supernatant was collected. Absorbance at 415 nm (A415) was measured using a microplate reader (Molecular Devices, SpectraMax i3X). IC50 values were calculated from percent hemolysis as a function of test compound concentration by non-linear regression.

Complement factor B, sequence (P00751 26-764): as above

Take `COc1cc(C)c2[nH]ccc2c1CN1CC[C@H](OCC2CC2)C[C@H]1c1ccc(C(=O)O)cc1` [Example 5]: in series [1] (human liver microsomes, T = 90 min), the “MMS (human) Remaining (T = 90 min)” value is on record as 91.04%. Besides, the half-life at 1 µM in series [1] (pooled liver microsomes, pH 7.4, NADPH, read-out: MMS (human) T1/2) turned out to be 11.2 h. In series [2], the arthritis score result was “can improve the arthritis score” and the “effect on arthritis score compared with the control compound” value is “significantly better effect than the control compound”. The “MMS (monkey) Remaining (T = 90 min)” value in series [3] (T = 90 min) came to 93.32%. Besides, the half-life at 1 µM in series [3] (pH 7.4, NADPH, read-out: MMS (monkey) T1/2) is 12.8 h. Moreover, in series [4], the “mean plasma concentration compared with the control compound” value is listed as “significantly higher mean plasma concentration than the control compound”. Also, in series [5], the AUC(0-inf) came out at 3280 ng·h/mL, the AUC(0-t) was 3120 ng·h/mL, the Cmax is 1920 ng/mL and the Tmax was 0.25 h. Further, in series [5], the half-life was 1.58 h. For the same compound, the “binding capacity to the target protein compared with the control compound” value on Complement factor B (at a concentration of 500 μM) was “significantly better than the control compound”. In addition, the “Rmax (RU)” value at Complement factor B (test compound 500 μM, 25° C., 1:1 binding model) was 274.2 RU. Further, the half-life at 1 µM in series [6] (SD, pH 7.4, rat liver microsomes, NADPH, read-out: MMS (rat) T1/2) came to 9.13 h. Further, the “MMS (rat) Remaining (T = 90 min)” value in series [6] (rat liver microsomes, T = 90 min) is on record as 89.14%. Besides, the “liver microsomal stability (in words)” value in series [6] (statement covers rat, monkey and human liver microsomes (Table 3)) was “more significant liver microsomal stability”. Further, in series [7] (hemolysis of rabbit erythrocytes), the “inhibitory activity against complement factor B in human serum compared with the control compound” value was “significantly better inhibitory activity against complement factor B in human serum than the control compound”. Also, in series [7] (rabbit erythrocytes, normal human serum, 37° C., read-out: Hemolysis IC50), the IC50 was 87.9 nM.

The AUC(0-inf) is total exposure, with the tail of the curve extrapolated. Broadly, the AUC(0-t) is exposure summed from dosing to a finite time, without extrapolation to infinity. In general, Cmax refers to the maximum level reached in the sampled fluid or tissue. By Tmax is commonly meant the time from dosing to the highest level. A word on the IC50: it is the concentration that gives 50% inhibition.
